Measurements from patent publication US20130029976A1, “PEST CONTROLLING COMPOSITION” (SUMITOMO CHEMICAL COMPANY, LIMITED, priority 2010, published 2013).

Test system: third instar larvae of Spodoptera litura
Experiment: Test Example 1: cabbage leaf immersion test, insecticidal ratio
Assay type: in vivo
Conditions: cabbage leaf immersed 60 seconds, 2 days after, three replications
Method: A flowable formulation containing 10.0% by weight of pyridalyl (trade name: Pleo® flowable, manufactured by Sumitomo Chemical Co., Ltd.) was diluted with water containing 0.02% by volume of a spreading agent (trade name: Sindain®, manufactured by Sumitomo Chemical Co., Ltd.) so as to adjust the concentration of pyridalyl to 12.5 ppm.
A flowable formulation containing 10.0% by weight of indoxacarb (trade name: Tornado® flowable, manufactured by DuPont) was diluted with water containing 0.02% by volume of a spreading agent (trade name: Sindain®, manufactured by Sumitomo Chemical Co., Ltd.) so as to adjust the concentration of indoxacarb to 6.25 ppm.
The water dilution of pyridalyl and the water dilution of indoxacarb were mixed in the same amount to prepare a test chemical solution.
A cabbage was planted in a pot having a volume of 860 ml and grown to the forth leaf stage. Each leaf of the cabbage seedling was cut off. One leaf of the cabbage was immersed in the test chemical solution for 60 seconds. After air-drying, the leaf was placed in a cup having a volume of 500 ml in which filter paper had been spread on the bottom. In the cup, 10 third instar larvae of Spodoptera litura were released (the inside of the cup containing the treated cabbage was regarded as the treated area). […]
An insecticidal ratio was calculated by correcting the results using the following equation. […]

SMILES	Insecticidal ratio (%) (active ingredient 3.13 ppm)	Insecticidal ratio (%) (active ingredient 6.25 ppm)
COC(=O)N(C(=O)N1CO[C@@]2(C(=O)OC)Cc3cc(Cl)ccc3C2=N1)c1ccc(OC(F)(F)F)cc1 [Indoxacarb, methyl(4aS)-7-chloro-2,5-dihydro-2-[[(methoxycarbonyl)[4-(trifluoromethoxy)phenyl]amino]carbonyl]indeno[1,2-e] [1,3,4]oxadiazine-4a(3H)-carboxylate]	16.7	–
FC(F)(F)c1ccc(OCCCOc2c(Cl)cc(OCC=C(Cl)Cl)cc2Cl)nc1 [Pyridalyl, 2-[3-[2,6-dichloro-4-[(3,3-dichloro-2-propenyl)oxy]phenoxy]propoxy]-5-(trifluoromethyl)pyridine]	–	10.0
